{"source": "patent US6646006B2", "about": "“Enhancement of vascular function by modulation of endogenous nitric oxide production or activity” (The Board of Trustees of the Leland Stanford Junior …, priority 1993, dated 2003)", "key": {"[1]": {"test_system": "hypercholesterolemic rabbits", "assay": "Oral arginine in cholesterol-fed rabbits: biochemical and physiological measurements", "format": "in vivo, rabbit", "settings": "1% cholesterol diet + 2.25% L-arginine HCl in drinking water, vs Control or Chol diet", "excerpt": "(§1) Study design: (See, Cooke et al., 1992, supra) Male New Zealand white rabbits (n=49) were assigned to one of three treatment groups: 10 were fed with normal rabbit chow for ten weeks (Control); 19 received chow enriched with 1% cholesterol (Chol); and 20 received a 1% cholesterol diet supplemented with 2.25% L-arginine hydrochloride in the drinking water (Arg.). […] Subsequently the animals were sacrificed and the left main coronary artery and the thoracic aorta were harvested for studies of vascular reactivity and histomorphometry. In some animals, blood was collected for studies of platelet and monocyte reactivity.\nResults: Biochemical and physiological measurements. […] Serum cholesterol measurements were elevated equally in both groups receiving the 1% cholesterol diet [50±6 vs. 1629±422 vs. 1852±356 mg/dl respectively for Control (=10), Chol (=13), and Arg (=14)]."}, "[2]": {"test_system": "hypercholesterolemic rabbits", "assay": "Organ chamber studies of isolated vessels from cholesterol-fed rabbits", "format": "in vivo, rabbit", "excerpt": "as §1\nBy contrast, NO-dependent relaxations were attenuated in vessels harvested from hypercholesterolemic animals with a reduction in the maximal response to acetylcholine. In comparison, vessels harvested from hypercholesterolemic animals receiving L-arginine supplementation had improved NO-dependent relaxation to acetylcholine. In a separate study, the effect of chronic arginine supplementation to improve NO-dependent relaxation was confirmed in the hypercholesterolemic rabbit abdominal aorta."}, "platelets [3]": {"test_system": "platelets", "assay": "ADP-initiated platelet aggregation (nephelometry), platelets from treated rabbits", "format": "in vivo, rabbit", "protocol": "The effect of L-arginine supplementation on platelet reactivity in rabbits that had normal chow (Control; n=6), a 1% cholesterol diet (Chol; n=5), or a 1% cholesterol diet supplemented with oral arginine (Arg; n=6), as detailed above, was examined. Arterial blood obtained after central ear artery cannulation was anticoagulated with 13 mM sodium citrate. Platelet-rich suspension was prepared by washing platelets in calcium-free Krebs-Henseleit solution and resuspending them in Tyrode's solution with albumin. Aggregation was initiated by addition of adenosine diphosphate and monitored by standard nephelometric techniques. In platelets derived from Chol animals, aggregation was not different in rate or maximum extent in comparison to platelets from Control animals (A, in FIG. 2). By contrast, aggregation of platelets from Arg animals was reduced by 50% (B, in FIG. 2).\nTherefore, the anti-platelet effect of chronic oral arginine administration can be credited to an increased synthesis of endogenous NO. Furthermore, NO synthesis may be induced in both the platelets and the endothelium."}, "[4]": {"test_system": "rabbit aortic endothelium", "assay": "Ex vivo binding of WEHI 78/24 monocytoid cells to rabbit aortic endothelium", "format": "in vivo", "settings": "two weeks, L-arginine supplementation", "text": "Methods. Animals. Male New Zealand White rabbits were pair fed, receiving one of the following dietary interventions for two weeks: normal rabbit chow (Cont, n=7); rabbit chow enriched with 1% cholesterol (Chol, n=7); or 1% cholesterol chow supplemented with 2.25% L-arginine HCl in the drinking water (Arg, n=7) ad libitum throughout the course of the study. […] One day before sacrifice (after 2 weeks of dietary intervention), animals were lightly sedated and the central ear artery was cannulated for collection of blood samples.\nMononuclear cell culture and isolation. Murine monocytoid cells, WEHI 78/24 cells were grown in Dulbecco's Modified Eagle's Medium supplemented 10% fetal calf serum (vol/vol) and were kept in an atmosphere of 5% CO2/95% air. Prior to binding studies, mononuclear cells were fluorescently labeled with TRITC (3 μg/ml). To confirm the results using WEHI cells, in some studies binding studies were performed in parallel using rabbit mononuclear cells. Mononuclear cells were isolated from fresh whole blood of Control rabbits before sacrifice.\nPreparation of aortic endothelium and binding assay. […]\nAfter 10 minutes the HBSS medium was replaced by binding medium containing WEHI cells. […] The aortic segments were then removed and placed on a glass slide, and adherent cells counted under epifluorescent microscopy from at least 30 sites on each segment."}, "[5]": {"test_system": "hypercholesterolemic rabbits", "assay": "Balloon angioplasty of the iliac artery in hypercholesterolemic rabbits, oral arginine", "format": "in vivo, rabbit", "excerpt": "Methods. Twenty-eight New Zealand white rabbits were randomized into one of three dietary groups and received either normal rabbit chow, 0.5% cholesterol diet, or 0.5% cholesterol diet plus L-arginine hydrochloride (2.25% W/V) in the drinking water. After six weeks of dietary intervention, left iliac artery of each animal was subjected to a balloon angioplasty. Four weeks later, the iliac arteries were harvested for vascular reactivity studies and immunohistochemistry."}, "[6]": {"test_system": "hypercholesterolemic rabbits", "assay": "Local intraluminal arginine after iliac artery angioplasty in cholesterol-fed rabbits", "format": "in vivo, rabbit", "settings": "local infusion 6 mM, four weeks", "excerpt": "FIG. 8 is a histogram showing the effect of local-intraluminal administration of arginine on restenosis. Hypercholesterolemic rabbits had balloon angioplasty of the iliac artery. Immediately thereafter some animals received an infusion of arginine directly into the vessel by means of a catheter designed to apply high local concentrations of arginine to the vessel. Two to four weeks later, vessels were removed from the animals, and examined microscopically. Thickening of the vessel wall (internal thickening or “restenosis”) was reduced in the animals treated with intraluminal infusion of arginine (ARG) in comparison to those treated with vehicle. (See Ex. 12)\nTo determine if intraluminal application of arginine to the vessel wall at the time of balloon angioplasty could inhibit lesion formation, the following study was performed. Rabbits (n=7) were fed a 1% cholesterol diet. After one week, angioplasty of the iliac arteries was performed. After angioplasty of one iliac artery, a local infusion catheter was used to expose the injured area to a high concentration of arginine (6 mM). The other iliac artery was subjected to balloon angioplasty, but not treated with a local infusion. After four weeks, the vessels were harvested, and segments of the arteries processed for histomorphometry."}, "platelets [7]": {"test_system": "platelets", "assay": "Platelet aggregometry in hypercholesterolemic humans after oral L-arginine", "format": "in vivo, human", "excerpt": "FIG. 13 is a set of histograms showing aggregation of platelets obtained in hypercholesterolemic humans (hc), and individuals with normal cholesterol levels (nc). Platelet aggregation ex vivo in response to adenosine diphosphate (ADP) is increased in hc individuals in comparison to normal individuals. […] (See Ex. 16)\nIn this study we tested the hypothesis that chronic L-arginine supplementation would inhibit platelet reactivity in hypercholesterolemic humans. Venous blood was collected from normal (NC; n=11) and hypercholesterolemic (HC; n=22) volunteers for isolation of platelet-rich plasma and aggregometry. […]"}, "[8]": {"test_system": "forearm resistance vessels", "assay": "Forearm blood flow response to methacholine (plethysmography) after intravenous L-arginine", "format": "in vivo, human", "excerpt": "The control subject population in this study included 11 normal volunteers comprising (10 males and 1 female). Their ages ranged from 31 to 49 and averaged 39±2 yr. There were 14 patients with hypercholesterolemia. Hypercholesterolemia was defined as a serum LDL cholesterol level greater than the 75th percentile adjusted for age and sex. These individuals included 11 males and 3 females whose ages ranged from 22 to 48 and averaged 38±2 years.\nUnder local anesthesia and sterile conditions, a polyethylene catheter was inserted into a brachial artery of each subject for determination of blood pressure and for infusion of drugs. A separate polyethylene catheter was inserted into the antecubital vein for infusion of L-arginine. Bilateral forearm blood flow was determined by venous occlusion strain gauge plethysmography, using calibrated mercury-in-silastic strain gauges, and expressed as ml/100 ml tissue per min.\nTo assess NO-dependent vasodilation, methacholine chloride (which induces the endothelium to release NO) was administered via the brachial artery. Forearm blood flow was measured during infusion of methacholine chloride at concentrations of 0.3, 3, and 10 μg/min each for 3 min.\nAfter completion of the methacholine chloride infusions, all normal subjects and 10 individuals with hypercholesterolemia were given L-arginine intravenously over 30 minutes and then the methacholine infusions were repeated. D-arginine, the enantiomer of L-arginine, is not a precursor of NO. Thus, to ensure that any observed effects of L-arginine were due to its contribution to the synthesis of NO and not just secondary to its physiochemical properties, five individuals with hypercholesterolemia received D-arginine intravenously."}}, "note": "“Also recorded” adds a separate entry of the source."}
{"compound": "N=C(N)NCCC[C@H](N)C(=O)O", "note": "[L-arginine]", "values": [{"measurement": "plasma arginine levels", "setting": "[1]", "value": "twofold elevation"}, {"measurement": "NO-independent responses: maximal response or sensitivity to norepinephrine or nitroglycerin", "setting": "[2]; differences between treatment groups", "value": "no differences"}, {"measurement": "NO-dependent relaxation to acetylcholine", "setting": "[2]; vs hypercholesterolemic animals without supplement", "value": "improved"}, {"measurement": "cGMP content in aggregated platelets", "setting": "platelets [3]; arginine-treated animals", "value": "two-fold greater"}, {"measurement": "reduction of platelet aggregation", "setting": "platelets [3]; platelets from Arg animals, adenosine diphosphate", "value": 50, "unit": "%"}, {"measurement": "increased WEHI cell binding to aortic endothelium of hypercholesterolemic animals", "setting": "[4]", "value": "significantly attenuated"}, {"measurement": "intimal thickening in injured vessels", "setting": "[5]; four weeks after balloon angioplasty", "value": "reduced"}, {"measurement": "accumulation of macrophages in the lesion", "setting": "[5]; four weeks after balloon injury, ARG vs CHOL", "value": "substantially inhibited; also recorded: significantly reduced"}, {"measurement": "endothelium-derived NO activity (bioassay)", "setting": "[5]; iliac artery, hypercholesterolemic animals", "value": "partially restored"}, {"measurement": "thickening of the vessel wall in arginine-treated vessels", "setting": "[6]", "value": "significantly reduced"}, {"measurement": "platelet aggregation in response to ADP", "setting": "platelets [7]; 2 weeks of oral L-arginine", "value": "attenuated"}, {"measurement": "aggregability of HC platelets", "setting": "platelets [7]; two weeks, collagen 5 mg/ml", "value": "reduced"}, {"measurement": "augmentation of the vasodilation to methacholine chloride", "setting": "[8]; hypercholesterolemic subjects, intravenous over 30 minutes", "value": 25, "unit": "%"}, {"measurement": "complications or side-effects of the infusions", "setting": "[8]; intravenous", "value": "no complications or side-effects"}, {"measurement": "vasodilation during methacholine chloride", "setting": "[8]; normal subjects, intravenous over 30 minutes", "value": "did not potentiate"}]}
